Results on 26 compounds are retold here after US20250282794A1 (CURADEV PHARMA LTD, priority 2022, published 2025).

Each structure is given as a SMILES string.

In the assay the target is recombinant full length HPK-1 enzyme (Homo sapiens (Human), UniProt Q92918). In words: HPK-1 biochemical enzyme assay (ADP-Glo kinase inhibition). Particulars: recombinant full length HPK-1 6.8 nM, 10 μM ATP, 12.5 μM MBP, 30 mins at 25° C. Put shortly:
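ADP-Glo readout of ADP formed after a 30 min, 25° C. reaction of 6.8 nM full-length HPK-1 with swine myelin basic protein (12.5 μM) and ATP (10 μM) in Tris pH 7.4 buffer with MgCl2, DTT and BSA. Ten compound concentrations tested; percent inhibition set against vehicle (0%) and no-enzyme (100%) controls gave IC50.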

recombinant full length HPK-1 enzyme, sequence (Q92918 whole entry, species assumed): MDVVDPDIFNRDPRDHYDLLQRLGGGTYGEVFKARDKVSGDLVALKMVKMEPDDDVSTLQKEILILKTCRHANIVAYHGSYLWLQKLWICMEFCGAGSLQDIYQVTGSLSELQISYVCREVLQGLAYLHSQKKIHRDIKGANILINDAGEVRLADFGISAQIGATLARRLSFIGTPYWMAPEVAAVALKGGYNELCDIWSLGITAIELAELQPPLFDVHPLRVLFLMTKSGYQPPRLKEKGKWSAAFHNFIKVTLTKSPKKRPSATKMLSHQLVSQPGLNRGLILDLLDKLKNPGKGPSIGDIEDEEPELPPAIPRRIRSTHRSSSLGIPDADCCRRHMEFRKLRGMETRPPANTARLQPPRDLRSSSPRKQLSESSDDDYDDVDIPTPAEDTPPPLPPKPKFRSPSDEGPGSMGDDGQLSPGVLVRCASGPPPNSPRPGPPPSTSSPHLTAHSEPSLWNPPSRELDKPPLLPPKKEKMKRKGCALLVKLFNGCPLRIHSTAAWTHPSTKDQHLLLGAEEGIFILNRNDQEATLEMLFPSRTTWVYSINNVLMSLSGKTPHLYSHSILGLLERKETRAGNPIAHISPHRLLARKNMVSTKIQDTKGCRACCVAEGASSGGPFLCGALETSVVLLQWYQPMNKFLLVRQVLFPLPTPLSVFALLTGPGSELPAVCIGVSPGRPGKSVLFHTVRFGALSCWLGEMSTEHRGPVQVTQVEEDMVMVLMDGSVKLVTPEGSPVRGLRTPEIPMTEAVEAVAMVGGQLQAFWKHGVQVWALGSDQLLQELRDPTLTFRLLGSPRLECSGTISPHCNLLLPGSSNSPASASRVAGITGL

By IC50 is commonly meant the concentration that gives 50% inhibition. With `Cc1c(Nc2cc[nH]c(=O)c2C(=O)Nc2ccc(N3CCN(Cc4ccn[nH]4)CC3)cc2)cnc2c1NCC(C)O2` (centres unmarked) [Example 193, N-(4-(4-((1H-pyrazol-5-yl)methyl)piperazin-1-yl)phenyl)-4-((3,8-dimethyl-2,3-dihydro-1H-pyrido[2,3-b][1,4]oxazin-7-yl)amino)-2-oxo-1,2-dihydropyridine-3-carboxamide], the concentration for half-maximal inhibition (IC50) is at most 0.01 µM.

Take `Cc1cc(N2CCN(C)CC2)ccc1NC(=O)c1c(Nc2cnc3c(c2C)NCCO3)cc[nH]c1=O` [Example 195, 4-((8-methyl-2,3-dihydro-1H-pyrido[2,3-b][1,4]oxazin-7-yl)amino)-N-(2-methyl-4-(4-methylpiperazin-1-yl)phenyl)-2-oxo-1,2-dihydropyridine-3-carboxamide]: the IC50 was 0.1 to 1 µM.

Consider `Cc1c(Nc2cc[nH]c(=O)c2C(=O)Nc2ccc(N3CCN(C)CC3)c(C(F)(F)F)c2)cnc2c1NCC(C)O2` (centres unmarked) [Example 196, 4-((3,8-dimethyl-2,3-dihydro-1H-pyrido[2,3-b][1,4]oxazin-7-yl)amino)-N-(4-(4-methylpiperazin-1-yl)-3-(trifluoromethyl)phenyl)-2-oxo-1,2-dihydropyridine-3-carboxamide], for which the IC50 fell in the range of 0.01 to 0.1 µM.

For the compound `COCC1CN(C)CCN1c1ccc(NC(=O)c2c(Nc3cnc4c(c3C)NCC(C)O4)cc[nH]c2=O)cc1` (centres unmarked) [Example 197, 4-((3,8-Dimethyl-2,3-dihydro-1H-pyrido[2,3-b][1,4]oxazin-7-yl)amino)-N-(4-(2-(methoxymethyl)-4-methylpiperazin-1-yl)phenyl)-2-oxo-1,2-dihydropyridine-3-carboxamide], the IC50 was in the range of 0.01 to 0.1 µM.

On to `Cc1c(Nc2cc[nH]c(=O)c2C(=O)Nc2ccc(N3CCN(C)CC3)cc2)cnc2c1NCC(F)O2` (centres unmarked) [Example 198, 4-((3-Fluoro-8-methyl-2,3-dihydro-1H-pyrido[2,3-b][1,4]oxazin-7-yl)amino)-N-(4-(4-methylpiperazin-1-yl)phenyl)-2-oxo-1,2-dihydropyridine-3-carboxamide], for which the IC50 lay within 0.01 to 0.1 µM.

`Cc1c(Nc2cc[nH]c(=O)c2C(=O)Nc2ccc(N3CCN(C)CC3)nc2)cnc2c1NCC(C)O2` (centres unmarked) [Example 199]: the IC50 is 0.01 to 0.1 µM.

With `Cc1cc(NC(=O)c2c(Nc3cnc4c(c3C)NCC(C)O4)cc[nH]c2=O)ccc1N1CCN(C)CC1` (centres unmarked) [Example 200, 4-((3,8-dimethyl-2,3-dihydro-1H-pyrido[2,3-b][1,4]oxazin-7-yl)amino)-N-(3-methyl-4-(4-methylpiperazin-1-yl)phenyl)-2-oxo-1,2-dihydropyridine-3-carboxamide], the IC50 was at most 0.01 µM.

As for `Cc1c(Nc2cc[nH]c(=O)c2C(=O)Nc2ccc(N3CCN4CCCC4C3)cc2)cnc2c1NCC(C)O2` (centres unmarked) [Example 201, 4-((3,8-dimethyl-2,3-dihydro-1H-pyrido[2,3-b][1,4]oxazin-7-yl)amino)-N-(4-(hexahydropyrrolo[1,2-a]pyrazin-2(1H)-yl)phenyl)-2-oxo-1,2-dihydropyridine-3-carboxamide], the IC50 was in the range of 0.01 to 0.1 µM.

Regarding `COCCN1CCC(c2ccc(NC(=O)c3c(Nc4cnc5c(c4C)NCCO5)cc[nH]c3=O)cc2)CC1` [Example 202, N-(4-(1-(2-methoxyethyl)piperidin-4-yl)phenyl)-4-((8-methyl-2,3-dihydro-1H-pyrido[2,3-b][1,4]oxazin-7-yl)amino)-2-oxo-1,2-dihydropyridine-3-carboxamide], the IC50 was 0.01 to 0.1 µM.

As to `COc1cc(NC(=O)c2c(Nc3cnc4c(c3C)NCC(C)O4)cc[nH]c2=O)ccc1N1CCN(C)CC1` (centres unmarked) [Example 203, 4-((3,8-dimethyl-2,3-dihydro-1H-pyrido[2,3-b][1,4]oxazin-7-yl)amino)-N-(3-methoxy-4-(4-methylpiperazin-1-yl)phenyl)-2-oxo-1,2-dihydropyridine-3-carboxamide], the half-inhibitory concentration (IC50) fell in the range of 0.01 to 0.1 µM.

Consider `Cc1c(Nc2cc[nH]c(=O)c2C(=O)Nc2ccc(N3CCN(C)CC3)c(CO)c2)cnc2c1NCC(C)O2` (centres unmarked) [Example 204, 4-((3,8-dimethyl-2,3-dihydro-1H-pyrido[2,3-b][1,4]oxazin-7-yl)amino)-N-(3-(hydroxymethyl)-4-(4-methylpiperazin-1-yl)phenyl)-2-oxo-1,2-dihydropyridine-3-carboxamide], for which the IC50 was 0.01 to 0.1 µM.

On to `Cc1c(Nc2cc[nH]c(=O)c2C(=O)Nc2ccc(N3CCOCC3)cc2)cnc2c1NCCO2` [Example 205, 4-((8-methyl-2,3-dihydro-1H-pyrido[2,3-b][1,4]oxazin-7-yl)amino)-N-(4-morpholinophenyl)-2-oxo-1,2-dihydropyridine-3-carboxamide], for which the IC50 was in the range of 0.01 to 0.1 µM.

On to `Cc1c(Nc2cc[nH]c(=O)c2C(=O)Nc2ccc(CN3CCN(C)CC3)cc2)cnc2c1NCCO2` [Example 206, 4-((8-methyl-2,3-dihydro-1H-pyrido[2,3-b][1,4]oxazin-7-yl)amino)-N-(4-((4-methylpiperazin-1-yl)methyl)phenyl)-2-oxo-1,2-dihydropyridine-3-carboxamide], for which the IC50 lay within 0.01 to 0.1 µM.

Turning to `Cc1c(Nc2cc[nH]c(=O)c2C(=O)Nc2ccc(N3CCN(C)CC3)cc2F)cnc2c1NCCO2` [Example 207, N-(2-fluoro-4-(4-methylpiperazin-1-yl)phenyl)-4-((8-methyl-2,3-dihydro-1H-pyrido[2,3-b][1,4]oxazin-7-yl)amino)-2-oxo-1,2-dihydropyridine-3-carboxamide], the IC50 was in the range of 0.01 to 0.1 µM.

On to `Cc1c(Nc2cc[nH]c(=O)c2C(=O)Nc2ccc(N3CCN(C)CC3)c(C(=O)N(C)C)c2)cnc2c1NCCO2` [Example 208, N-(3-(dimethylcarbamoyl)-4-(4-methylpiperazin-1-yl)phenyl)-4-((8-methyl-2,3-dihydro-1H-pyrido[2,3-b][1,4]oxazin-7-yl)amino)-2-oxo-1,2-dihydropyridine-3-carboxamide], for which the IC50 was 0.1 to 1 µM.

For `Cc1c(Nc2cc[nH]c(=O)c2C(=O)Nc2ccc(NC3CCN(C)CC3)cc2)cnc2c1NCCO2` [Example 209, 4-((8-methyl-2,3-dihydro-1H-pyrido[2,3-b][1,4]oxazin-7-yl)amino)-N-(4-((1-methylpiperidin-4-yl)amino)phenyl)-2-oxo-1,2-dihydropyridine-3-carboxamide], the IC50 lay in the range of 0.01 to 0.1 µM.

As to `Cc1c(Nc2cc[nH]c(=O)c2C(=O)Nc2ccc(S(N)(=O)=O)cc2)cnc2c1NCCO2` [Example 210, 4-((8-methyl-2,3-dihydro-1H-pyrido[2,3-b][1,4]oxazin-7-yl)amino)-2-oxo-N-(4-sulfamoylphenyl)-1,2-dihydropyridine-3-carboxamide], the IC50 lay in the range of 0.01 to 0.1 µM.

Consider `Cc1c(Nc2cc[nH]c(=O)c2C(=O)Nc2ccc(N3CCN(C)CC3)c(-n3cnnc3)c2)cnc2c1NCCO2` [Example 211, 4-((8-methyl-2,3-dihydro-1H-pyrido[2,3-b][1,4]oxazin-7-yl)amino)-N-(4-(4-methylpiperazin-1-yl)-3-(4H-1,2,4-triazol-4-yl)phenyl)-2-oxo-1,2-dihydropyridine-3-carboxamide], for which the IC50 is 0.01 to 0.1 µM.

Take `Cc1c(Nc2cc[nH]c(=O)c2C(=O)Nc2ccc(N3CCCC(C(C)(C)O)C3)cc2)cnc2c1NCCO2` (centres unmarked) [Example 212, N-(4-(3-(2-hydroxypropan-2-yl)piperidin-1-yl)phenyl)-4-((8-methyl-2,3-dihydro-1H-pyrido[2,3-b][1,4]oxazin-7-yl)amino)-2-oxo-1,2-dihydropyridine-3-carboxamide]: the IC50 was at most 0.01 µM.

Turning to `Cc1c(Nc2cc[nH]c(=O)c2C(=O)Nc2ccc(CN3CCN(C)CC3)c(C(F)(F)F)c2)cnc2c1NCCO2` [Example 213, 4-((8-methyl-2,3-dihydro-1H-pyrido[2,3-b][1,4]oxazin-7-yl)amino)-N-(4-((4-methylpiperazin-1-yl)methyl)-3-(trifluoromethyl)phenyl)-2-oxo-1,2-dihydropyridine-3-carboxamide], the IC50 fell in the range of 0.01 to 0.1 µM.

With `Cc1c(Nc2cc[nH]c(=O)c2C(=O)Nc2ccc(C3CCCN(C)C3)cc2)cnc2c1NCCO2` (centres unmarked) [Example 214, 4-((8-methyl-2,3-dihydro-1H-pyrido[2,3-b][1,4]oxazin-7-yl)amino)-N-(4-(1-methylpiperidin-3-yl)phenyl)-2-oxo-1,2-dihydropyridine-3-carboxamide], the IC50 is at most 0.01 µM.

As to `Cc1c(Nc2cc[nH]c(=O)c2C(=O)Nc2ccc(N3CCN(C)CC3)c(C(=O)O)c2)cnc2c1NCCO2` [Example 215, 5-(4-((8-methyl-2,3-dihydro-1H-pyrido[2,3-b][1,4]oxazin-7-yl)amino)-2-oxo-1,2-dihydropyridine-3-carboxamido)-2-(4-methylpiperazin-1-yl)benzoic acid], the IC50 was 0.1 to 1 µM.

For `Cc1c(Nc2cc[nH]c(=O)c2C(=O)Nc2ccc(N3CCC(C(=O)O)CC3)cc2)cnc2c1NCCO2` [Example 216, 1-(4-(4-((8-methyl-2,3-dihydro-1H-pyrido[2,3-b][1,4]oxazin-7-yl)amino)-2-oxo-1,2-dihydropyridine-3-carboxamido)phenyl)piperidine-4-carboxylic acid], the IC50 was in the range of 0.01 to 0.1 µM.

Take `Cc1cc(NS(C)(=O)=O)ccc1NC(=O)c1c(Nc2cnc3c(c2C)NCCO3)cc[nH]c1=O` [Example 217, 4-((8-methyl-2,3-dihydro-1H-pyrido[2,3-b][1,4]oxazin-7-yl)amino)-N-(2-methyl-4-(methylsulfonamido)phenyl)-2-oxo-1,2-dihydropyridine-3-carboxamide]: the IC50 lay in the range of 0.1 to 1 µM.

For `CCN1C(=O)C(C)(C)c2cc(NC(=O)c3c(Nc4cnc5c(c4C)NCCO5)cc[nH]c3=O)ccc21` [Example 218, N-(1-ethyl-3,3-dimethyl-2-oxoindolin-5-yl)-4-((8-methyl-2,3-dihydro-1H-pyrido[2,3-b][1,4]oxazin-7-yl)amino)-2-oxo-1,2-dihydropyridine-3-carboxamide], the half-inhibitory concentration (IC50) fell in the range of 0.1 to 1 µM.

`Cc1c(Nc2cc[nH]c(=O)c2C(=O)Nc2ccc(N3CCN(C)[C@@H](C)C3)cc2)cnc2c1NCCO2` [Example 219, (S)-N-(4-(3,4-dimethylpiperazin-1-yl)phenyl)-4-((8-methyl-2,3-dihydro-1H-pyrido[2,3-b][1,4]oxazin-7-yl)amino)-2-oxo-1,2-dihydropyridine-3-carboxamide]: the half-maximal inhibitory concentration (IC50) was at most 0.01 µM.
